Data on 17 compounds can be found in patent US20250136583A1, “NOVEL SALT FORMS OF ISOCHROMAN-IMIDAZOLE STRUCTURED ALPHA-2A ADRENOCEPTOR AGONIST” (ORION CORPORATION, priority 2022, published 2025).

Structures can show the parent of a compound that is named as a salt.

Data set [1] is described as follows: Physical stability of the salts (storage at elevated temperature and relative humidity, re-analysis by XRPD). The format is physicochemical. Conditions: for Form after stability / Physical stability: solids exposed for 2 or 3 weeks at 40° C. and 70-80% relative humidity; for Form after stability: XRPD; for Physical stability: re-analyzed by XRPD. Here is the method:
XRPD measurements were performed with the X-ray powder diffractometer Bruker D8 Advance at room temperature, using a copper filled X-ray tube (40 kV×40 mA) as the X-ray source, CuKα (λ=1.5418 Å), a 0.6 mm divergence slit, 2.5° Soller slits on both the primary and secondary beams and the 1-dimensional LynxEye detector (with aperture angle of 2.91593°). Data collection was done in the range of 3.8-33° 2θ with 0.02° increments, at a scan speed of 0.3°/s.
A stability test was carried out for all crystalline salt forms resulted from the salt screen by exposing the solids for 2 or 3 weeks at 40° C. and 70-80% relative humidity. After exposure, the solids were re-analyzed by XRPD, followed by physical stability assessment.

The nature of data set [2]: Chemical stability of the salts (stress at 60° C. and 75% relative humidity, purity by UHPLC). Conditions: for Purity (%) of 1 day stress samples / Difference between reference and 1 day stressed sample: 1 day at 60° C. and 75% relative humidity; for Purity (%) of 1 day stress samples / Purity (%) of 14 day stress samples / Purity (%) of reference: UHPLC; for Difference between reference and 1 day stressed sample / Difference between reference and 14 day stressed sample: purity difference, in %; for Purity (%) of 14 day stress samples / Difference between reference and 14 day stressed sample: 14 days at 60° C. and 75% relative humidity; for Purity (%) of reference: unstressed sample. Type of data set: physicochemical. Here is the method:
The purity analyses were performed using Agilent UHPLC equipment with PDA/DAD detector at 210 nm wavelength and reverse phase liquid chromatography column Acquity UPLC HSS T3, 100×3.0 mm, 1.8 μm (Waters). The chromatography was performed with gradient run using acetonitrile and phosphate buffer (pH 3.0) as eluents.
The chemical stability of various salts of compound (I) was determined by stressing the salts for 1 and 14 days at 60° C. and 75% relative humidity. The unstressed sample was used as an reference. The purity of the samples were analyzed using UHPLC, and the purity difference between the stressed and reference was calculated.

Where [3] appears, read: listed as 1-Hydroxy-2-naphtoic acid salt.

Take `COc1cccc2c1CCOC2C1=NCCN1` (racemic) [D,L-Lactic acid salt Form 1, 2-(5-methoxyisochroman-1-yl)-4,5-dihydro-1H-imidazole]: in data set [1], the Form after stability result is “Form 2” and the Physical stability result is on record as “Unstable”. Besides, in data set [1] (listed as D,L-lactic acid), the Form after stability entry is given as “completely”.

In the case of `COc1cccc2c1CCOC2C1=NCCN1` (centres unmarked) [1-Hydroxy-2-napthoic acid salt Form 1, 2-(5-methoxyisochroman-1-yl)-4,5-dihydro-1H-imidazole], in data set [1], the Form after stability entry was “Form 1” and the Physical stability entry is reported as “Stable”. The Physical stability entry in data set [1] (listed as 1-hydroxy-2-napthoic acid) is on record as “remained stable”. Besides, in data set [2] (setting [3]), the “Purity (%) of 1 day stress samples” value was found to be 95.4%; the “Difference between reference and 1 day stressed sample” value worked out at 3.5; the “Purity (%) of 14 day stress samples” value is on record as 0.6%; the “Difference between reference and 14 day stressed sample” value is recorded as 98.3. In addition, the “Purity (%) of reference” value in data set [2] (setting [3]) came to 98.9%.

Regarding `COc1cccc2c1CCOC2C1=NCCN1` (centres unmarked) [2-Ketoglutaric acid salt Form 1, 2-(5-methoxyisochroman-1-yl)-4,5-dihydro-1H-imidazole], in data set [1], the Form after stability entry was “Amorphous” and the Physical stability result is recorded as “Unstable”. Further, in data set [1] (listed as 2-ketoglutaric acid), the Form after stability entry is reported as “turned into amorphous phase”.

For `COc1cccc2c1CCOC2C1=NCCN1` (centres unmarked) [Adipic acid salt Form 1, 2-(5-methoxyisochroman-1-yl)-4,5-dihydro-1H-imidazole], in data set [1], the Form after stability result is “Form 1” and the Physical stability result was “Stable”. In addition, the Physical stability entry in data set [1] (listed as adipic acid) is recorded as “remained stable”. In data set [2], the “Purity (%) of 1 day stress samples” value is reported as 94.7%; the “Difference between reference and 1 day stressed sample” value is 4.4; the “Purity (%) of 14 day stress samples” value amounted to 2.7%; the “Difference between reference and 14 day stressed sample” value was 96.5. Also, the “Purity (%) of reference” value in data set [2] is reported as 99.1%.

Take `COc1cccc2c1CCOC2C1=NCCN1` (centres unmarked) [Cyclamic acid salt Form 1, 2-(5-methoxyisochroman-1-yl)-4,5-dihydro-1H-imidazole]: the Form after stability result in data set [1] is listed as “Form 2”; in data set [1] (listed as cyclamic acid (form 1)), “completely”. Further, the Physical stability entry in data set [1] is listed as “Unstable”.

For `COc1cccc2c1CCOC2C1=NCCN1` (centres unmarked) [Cyclamic acid salt Form 2, 2-(5-methoxyisochroman-1-yl)-4,5-dihydro-1H-imidazole], in data set [1] (listed as cyclamic acid (form 2)), the Form after stability result is “extra peaks in the XRPD pattern”.

As to `COc1cccc2c1CCOC2C1=NCCN1` (centres unmarked) [Ethane-1,2-disulfonic acid salt Form 1, 2-(5-methoxyisochroman-1-yl)-4,5-dihydro-1H-imidazole], in data set [1], the Form after stability entry is reported as “Form 1” and the Physical stability result is on record as “Stable”. For the same compound, the Physical stability result in data set [1] (listed as ethane-1,2-disulfonic acid) is given as “remained stable”. In addition, in data set [2], the “Purity (%) of 1 day stress samples” value is 99.8%; the “Difference between reference and 1 day stressed sample” value is on record as 0.0; the “Purity (%) of 14 day stress samples” value is recorded as 99.8%; the “Difference between reference and 14 day stressed sample” value is reported as 0.0. Besides, the “Purity (%) of reference” value in data set [2] stood at 99.8%. Also, the “Chemical stability (in words)” value in data set [2] (summary statement) was “good chemical stability”.

Consider `COc1cccc2c1CCOC2C1=NCCN1` (centres unmarked) [Fumaric acid salt Form 1, 2-(5-methoxyisochroman-1-yl)-4,5-dihydro-1H-imidazole], for which, in data set [1], the Form after stability result is on record as “Form 1” and the Physical stability result is reported as “Stable”. Also, the Physical stability entry in data set [1] (listed as fumaric acid (form 1)) is given as “remained stable”.

For the compound `COc1cccc2c1CCOC2C1=NCCN1` (centres unmarked) [Fumaric acid salt Form 2, 2-(5-methoxyisochroman-1-yl)-4,5-dihydro-1H-imidazole], in data set [1], the Form after stability result was “Form 2” and the Physical stability entry is given as “Stable”. Also, the Physical stability entry in data set [1] (listed as fumaric acid (form 2)) is recorded as “remained stable”. Besides, in data set [2], the “Purity (%) of 1 day stress samples” value was 97.6%; the “Difference between reference and 1 day stressed sample” value was −0.3; the “Purity (%) of 14 day stress samples” value amounted to 98.0%; the “Difference between reference and 14 day stressed sample” value is −0.8. In addition, the “Purity (%) of reference” value in data set [2] was 97.2%.

In the case of `COc1cccc2c1CCOC2C1=NCCN1` (centres unmarked) [Glutaric acid salt Form 1, 2-(5-methoxyisochroman-1-yl)-4,5-dihydro-1H-imidazole], in data set [1], the Form after stability entry was “Form 1” and the Physical stability result is given as “Stable”. In addition, the Physical stability result in data set [1] (listed as glutaric acid) was “remained stable”. For the same compound, in data set [2], the “Purity (%) of 1 day stress samples” value stood at 78.7%; the “Difference between reference and 1 day stressed sample” value was found to be 17.7; the “Purity (%) of 14 day stress samples” value is given as 2.0%; the “Difference between reference and 14 day stressed sample” value came to 94.4. For the same compound, in data set [2], the “Purity (%) of reference” value was determined as 96.4%.

Regarding `COc1cccc2c1CCOC2C1=NCCN1` (centres unmarked) [Glycolic acid salt Form 1, 2-(5-methoxyisochroman-1-yl)-4,5-dihydro-1H-imidazole], in data set [1], the Form after stability entry is on record as “Form 1” and the Physical stability entry is given as “Stable”. Besides, the Physical stability result in data set [1] (listed as glycolic acid) is listed as “remained stable”. Further, in data set [2], the “Purity (%) of 1 day stress samples” value is 99.3%; the “Difference between reference and 1 day stressed sample” value was 0.5; the “Purity (%) of 14 day stress samples” value was determined as 17.6%; the “Difference between reference and 14 day stressed sample” value is 82.2. The “Purity (%) of reference” value in data set [2] worked out at 99.8%.

As to `COc1cccc2c1CCOC2C1=NCCN1` [L-Aspartic acid salt Form 1, 2-(5-methoxyisochroman-1-yl)-4,5-dihydro-1H-imidazole], the Form after stability result in data set [1] was “Form 1 + amorphous”; in data set [1] (listed as L-aspartic acid) it was “an amorphous phase with characteristic peaks of the counter-ion”. Besides, in data set [1], the Physical stability result is “Unstable”.

For the compound `COc1cccc2c1CCOC2C1=NCCN1` [L-Glutamic acid salt Form 1, 2-(5-methoxyisochroman-1-yl)-4,5-dihydro-1H-imidazole], in data set [1], the Form after stability entry is listed as “extra peaks in the XRPD pattern”.

For the compound `COc1cccc2c1CCOC2C1=NCCN1` (centres unmarked) [Methanesulfonic acid salt Form 1, 2-(5-methoxyisochroman-1-yl)-4,5-dihydro-1H-imidazole], in data set [1], the Form after stability entry is listed as “Amorphous” and the Physical stability entry is reported as “Unstable”. The Form after stability result in data set [1] (listed as methanesulfonic acid) was “turned into amorphous phase”.

Turning to `COc1cccc2c1CCOC2C1=NCCN1` (centres unmarked) [Saccharin salt Form 1, 2-(5-methoxyisochroman-1-yl)-4,5-dihydro-1H-imidazole], the “Crystalline form conversion on storage” value in data set [1] (40° C., 75% RH for 3 weeks) is on record as “partially conversion into form 2”. The Form after stability result in data set [1] is reported as “Form 1 + Form 2”; in data set [1] (listed as saccharin (form 1)), “changed partially”.

Turning to `COc1cccc2c1CCOC2C1=NCCN1` (centres unmarked) [Saccharin salt Form 2, 2-(5-methoxyisochroman-1-yl)-4,5-dihydro-1H-imidazole], in data set [1], the Form after stability result is reported as “Form 2” and the Physical stability entry was “Stable”. Moreover, the Physical stability entry in data set [1] (listed as saccharin (form 2)) was “remained stable”.

Regarding `COc1cccc2c1CCOC2C1=NCCN1` (centres unmarked) [Saccharin salt, 2-(5-methoxyisochroman-1-yl)-4,5-dihydro-1H-imidazole], in data set [2], the “Purity (%) of 1 day stress samples” value is recorded as 95.0%; the “Difference between reference and 1 day stressed sample” value came to 2.1; the “Purity (%) of 14 day stress samples” value came to 91.5%; the “Difference between reference and 14 day stressed sample” value is 5.6. Moreover, in data set [2], the “Purity (%) of reference” value is 97.1%.
